Reference: the supplement of paper PMC8976852
± gives the standard deviation of the averaged measurements.

What was measured:
Assay in all cases: activity (1 - area under the dose-response curve within the screened range) (fraction); higher = more sensitive
Details in all cases: treatment time: 72 h
HCM-SANG-0266-C20 = system: HCM-SANG-0266-C20 (colorectal cancer organoid)
Description: (§1)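 Patient-derived cancer organoids (colorectal and oesophageal, HCM-SANG models) were grown for up to 6 months in 5% or 80% ECM (BME-2), then seeded in 384-well plates on an ECM layer and treated with 72 compounds for 3 days. Each compound used a 7-point half-log dilution series spanning a 1000-fold range, in technical triplicate and biological duplicate. Dose-response curves were fitted with a non-linear mixed effects model; fits with RMSE > 0.3 were removed, and activity = 1 - AUC within the screened dose range (0 = no activity, 1 = maximum).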

HCM-SANG-0291-C15 = system: HCM-SANG-0291-C15 (oesophageal cancer organoid)
Description: as §1

HCM-SANG-0270-C20 = system: HCM-SANG-0270-C20 (colorectal cancer organoid)
Description: as §1

HCM-SANG-0532-C20 = system: HCM-SANG-0532-C20 (colorectal cancer organoid)
Description: as §1

[1] = ECM percentage in culture prior to screening 5 %
[2] = ECM percentage in culture prior to screening 80 %

Compound: NC(=O)Nc1cc(-c2cccc(F)c2)sc1C(=O)N[C@H]1CCCNC1 [AZD7762]
- activity (HCM-SANG-0266-C20; [1]): 0.287 ± 0.041
- activity (HCM-SANG-0266-C20; [2]): 0.232 ± 0.029
- activity (HCM-SANG-0291-C15; [1]): 0.269 ± 0.016
- activity (HCM-SANG-0291-C15; [2]): 0.248 ± 0.043
- activity (HCM-SANG-0270-C20; [1]): 0.23 ± 0.049
- activity (HCM-SANG-0270-C20; [2]): 0.199 ± 0.05
- activity (HCM-SANG-0532-C20; [1]): 0.14 ± 0.056
- activity (HCM-SANG-0532-C20; [2]): 0.177 ± 0.035

Compound: COc1ccc(-c2ccc3c(N4CCOC[C@@H]4C)nc(N4CCOC[C@@H]4C)nc3n2)cc1CO [AZD8055]
- activity (HCM-SANG-0266-C20; [1]): 0.298 ± 0.097
- activity (HCM-SANG-0266-C20; [2]): 0.251 ± 0.12
- activity (HCM-SANG-0291-C15; [1]): 0.076 ± 0.03
- activity (HCM-SANG-0291-C15; [2]): 0.0634 ± 0.032
- activity (HCM-SANG-0270-C20; [1]): 0.117 ± 0.043
- activity (HCM-SANG-0270-C20; [2]): 0.0699 ± 0.062
- activity (HCM-SANG-0532-C20; [1]): 0.237 ± 0.076
- activity (HCM-SANG-0532-C20; [2]): 0.301 ± 0.039

Compound: CN(C)C/C=C/C(=O)Nc1cc2c(Nc3ccc(F)c(Cl)c3)ncnc2cc1O[C@H]1CCOC1 [Afatinib]
- activity (HCM-SANG-0266-C20; [1]): 0.308 ± 0.13
- activity (HCM-SANG-0266-C20; [2]): 0.217 ± 0.11
- activity (HCM-SANG-0291-C15; [1]): 0.414 ± 0.064
- activity (HCM-SANG-0291-C15; [2]): 0.316 ± 0.06
- activity (HCM-SANG-0270-C20; [1]): 0.311 ± 0.11
- activity (HCM-SANG-0270-C20; [2]): 0.153 ± 0.13
- activity (HCM-SANG-0532-C20; [1]): 0.171 ± 0.1
- activity (HCM-SANG-0532-C20; [2]): 0.243 ± 0.07

Compound: COc1cc(Nc2ncc3c(n2)-c2ccc(Cl)cc2C(c2c(F)cccc2OC)=NC3)ccc1C(=O)O [Alisertib]
- activity (HCM-SANG-0266-C20; [1]): 0.266 ± 0.08
- activity (HCM-SANG-0266-C20; [2]): 0.31 ± 0.081
- activity (HCM-SANG-0291-C15; [1]): 0.0593 ± 0.019
- activity (HCM-SANG-0291-C15; [2]): 0.0714 ± 0.026
- activity (HCM-SANG-0270-C20; [1]): 0.104 ± 0.078
- activity (HCM-SANG-0270-C20; [2]): 0.124 ± 0.06
- activity (HCM-SANG-0532-C20; [1]): 0.185 ± 0.063
- activity (HCM-SANG-0532-C20; [2]): 0.148 ± 0.027

Compound: Cc1nc(NC(=O)N2CCC[C@H]2C(N)=O)sc1-c1ccnc(C(C)(C)C(F)(F)F)c1 [Alpelisib]
- activity (HCM-SANG-0266-C20; [1]): 0.13 ± 0.052
- activity (HCM-SANG-0266-C20; [2]): 0.0656 ± 0.019
- activity (HCM-SANG-0291-C15; [1]): 0.0264 ± 0.0063
- activity (HCM-SANG-0291-C15; [2]): 0.0261 ± 0.011
- activity (HCM-SANG-0270-C20; [1]): 0.036 ± 0.027
- activity (HCM-SANG-0270-C20; [2]): 0.0216 ± 0.0057
- activity (HCM-SANG-0532-C20; [1]): 0.0918 ± 0.087
- activity (HCM-SANG-0532-C20; [2]): 0.0904 ± 0.033

Compound: CNC(=O)c1ccccc1Sc1ccc2c(/C=C/c3ccccn3)n[nH]c2c1 [Axitinib]
- activity (HCM-SANG-0266-C20; [1]): 0.147 ± 0.033
- activity (HCM-SANG-0266-C20; [2]): 0.143 ± 0.047
- activity (HCM-SANG-0291-C15; [1]): 0.0739 ± 0.021
- activity (HCM-SANG-0291-C15; [2]): 0.056 ± 0.023
- activity (HCM-SANG-0270-C20; [1]): 0.125 ± 0.03
- activity (HCM-SANG-0270-C20; [2]): 0.109 ± 0.037
- activity (HCM-SANG-0532-C20; [1]): 0.112 ± 0.021
- activity (HCM-SANG-0532-C20; [2]): 0.135 ± 0.035

Compound: CC[C@@H]1C(=O)N(C)c2cnc(Nc3ccc(C(=O)NC4CCN(C)CC4)cc3OC)nc2N1C1CCCC1 [BI-2536]
- activity (HCM-SANG-0266-C20; [1]): 0.439 ± 0.041
- activity (HCM-SANG-0266-C20; [2]): 0.436 ± 0.036
- activity (HCM-SANG-0291-C15; [1]): 0.429 ± 0.043
- activity (HCM-SANG-0291-C15; [2]): 0.464 ± 0.06
- activity (HCM-SANG-0270-C20; [1]): 0.305 ± 0.17
- activity (HCM-SANG-0270-C20; [2]): 0.311 ± 0.11
- activity (HCM-SANG-0532-C20; [1]): 0.292 ± 0.087
- activity (HCM-SANG-0532-C20; [2]): 0.335 ± 0.046

Compound: CC(C)C[C@H](NC(=O)[C@H](Cc1ccccc1)NC(=O)c1cnccn1)B(O)O [Bortezomib]
- activity (HCM-SANG-0266-C20; [1]): 0.201 ± 0.023
- activity (HCM-SANG-0266-C20; [2]): 0.228 ± 0.015
- activity (HCM-SANG-0291-C15; [1]): 0.208 ± 0.027
- activity (HCM-SANG-0291-C15; [2]): 0.234 ± 0.034
- activity (HCM-SANG-0270-C20; [1]): 0.16 ± 0.023
- activity (HCM-SANG-0270-C20; [2]): 0.167 ± 0.03
- activity (HCM-SANG-0532-C20; [1]): 0.201 ± 0.028
- activity (HCM-SANG-0532-C20; [2]): 0.212 ± 0.031

Compound: CC[C@@]1(O)C(=O)OCc2c1cc1n(c2=O)Cc2cc3ccccc3nc2-1 [Camptothecin]
- activity (HCM-SANG-0266-C20; [1]): 0.169 ± 0.031
- activity (HCM-SANG-0266-C20; [2]): 0.147 ± 0.071
- activity (HCM-SANG-0291-C15; [1]): 0.262 ± 0.021
- activity (HCM-SANG-0291-C15; [2]): 0.258 ± 0.022
- activity (HCM-SANG-0270-C20; [1]): 0.133 ± 0.028
- activity (HCM-SANG-0270-C20; [2]): 0.0946 ± 0.022
- activity (HCM-SANG-0532-C20; [1]): 0.106 ± 0.034
- activity (HCM-SANG-0532-C20; [2]): 0.156 ± 0.023

Compound: O=C(O)C1(C(=O)O)CCC1.[NH2-].[NH2-].[Pt+2] [Carboplatin]
- activity (HCM-SANG-0266-C20; [1]): 0.0268 ± 0.0076
- activity (HCM-SANG-0266-C20; [2]): 0.0392 ± 0.024
- activity (HCM-SANG-0291-C15; [1]): 0.0362 ± 0.017
- activity (HCM-SANG-0291-C15; [2]): 0.0271 ± 0.011
- activity (HCM-SANG-0270-C20; [1]): 0.0338 ± 0.02
- activity (HCM-SANG-0270-C20; [2]): 0.0325 ± 0.013
- activity (HCM-SANG-0532-C20; [1]): 0.0573 ± 0.015
- activity (HCM-SANG-0532-C20; [2]): 0.0352 ± 0.013

Compound: N.N.[Cl][Pt][Cl] [Cisplatin]
- activity (HCM-SANG-0266-C20; [1]): 0.0675 ± 0.021
- activity (HCM-SANG-0266-C20; [2]): 0.08 ± 0.081
- activity (HCM-SANG-0291-C15; [1]): 0.132 ± 0.023
- activity (HCM-SANG-0291-C15; [2]): 0.151 ± 0.025
- activity (HCM-SANG-0270-C20; [1]): 0.0701 ± 0.024
- activity (HCM-SANG-0270-C20; [2]): 0.0677 ± 0.021
- activity (HCM-SANG-0532-C20; [1]): 0.0676 ± 0.035
- activity (HCM-SANG-0532-C20; [2]): 0.0959 ± 0.02

Compound: C[C@@H](Oc1cc(-c2cnn(C3CCNCC3)c2)cnc1N)c1c(Cl)ccc(F)c1Cl [Crizotinib]
- activity (HCM-SANG-0266-C20; [1]): 0.144 ± 0.035
- activity (HCM-SANG-0266-C20; [2]): 0.0852 ± 0.034
- activity (HCM-SANG-0291-C15; [1]): 0.0562 ± 0.022
- activity (HCM-SANG-0291-C15; [2]): 0.065 ± 0.022
- activity (HCM-SANG-0270-C20; [1]): 0.0695 ± 0.034
- activity (HCM-SANG-0270-C20; [2]): 0.0648 ± 0.056
- activity (HCM-SANG-0532-C20; [1]): 0.101 ± 0.068
- activity (HCM-SANG-0532-C20; [2]): 0.154 ± 0.04

Compound: CC(C)(C)c1nc(-c2cccc(NS(=O)(=O)c3c(F)cccc3F)c2F)c(-c2ccnc(N)n2)s1 [Dabrafenib]
- activity (HCM-SANG-0266-C20; [1]): 0.138 ± 0.084
- activity (HCM-SANG-0266-C20; [2]): 0.0841 ± 0.044
- activity (HCM-SANG-0291-C15; [1]): 0.0243 ± 0.0054
- activity (HCM-SANG-0291-C15; [2]): 0.0207 ± 0.0019
- activity (HCM-SANG-0270-C20; [1]): 0.035 ± 0.012
- activity (HCM-SANG-0270-C20; [2]): 0.0243 ± 0.0073
- activity (HCM-SANG-0532-C20; [1]): 0.0306 ± 0.018
- activity (HCM-SANG-0532-C20; [2]): 0.0604 ± 0.032

Compound: Cn1c(=O)n(-c2ccc(C(C)(C)C#N)cc2)c2c3cc(-c4cnc5ccccc5c4)ccc3ncc21 [Dactolisib]
- activity (HCM-SANG-0266-C20; [1]): 0.254 ± 0.077
- activity (HCM-SANG-0266-C20; [2]): 0.239 ± 0.092
- activity (HCM-SANG-0291-C15; [1]): 0.101 ± 0.035
- activity (HCM-SANG-0291-C15; [2]): 0.0783 ± 0.027
- activity (HCM-SANG-0270-C20; [1]): 0.123 ± 0.039
- activity (HCM-SANG-0270-C20; [2]): 0.0768 ± 0.059
- activity (HCM-SANG-0532-C20; [1]): 0.193 ± 0.058
- activity (HCM-SANG-0532-C20; [2]): 0.257 ± 0.025
